In ChEMBL document CHEMBL3885861, “Open TG-GATES”:

Species: Rattus norvegicus
Experiment: Open TG-GATES - Regimen: Daily Repeat
Type: toxicity, organism-based, Sprague-Dawley
Design: regimen Daily Repeat, gender Male, age 6 weeks
Conditions: in vivo, po, route gavage; for APTT / Bas / Eos / Fbg / Hb / Ht / Lym / MCH / MCHC / MCV / Mono / Neu / PT / Plat / RBC / Ret / WBC: tissue Blood; for A/G / ALP / ALT / AST / BUN / CRE / Ca / Cl / DBIL / GLC / IP / K / LDH / Na / PL / RALB / TBIL / TC / TG / TP / gamma-GTP: tissue Plasma
[1] = 30 mg/kg, 72 h, dose level Middle, time 3 day
[2] = 30 mg/kg, […], dose level Middle, time 7 day
[3] = 30 mg/kg, […], dose level Middle, time 14 day
[4] = 30 mg/kg, […], dose level Middle, time 28 day
[5] = 100 mg/kg, 72 h, dose level High, time 3 day
[6] = 100 mg/kg, […], dose level High, time 7 day
[7] = 100 mg/kg, […], dose level High, time 14 day
[8] = 100 mg/kg, […], dose level High, time 28 day

Structure (SMILES): Cn1cc[nH]c1=S [METHIMAZOLE]
- TERMINAL_BW [1]: 217 g
- APTT [1]: 20.8 s
- Bas [1]: 0%
- Eos [1]: 1%
- Fbg [1]: 340.6 mg/dL
- Hb [1]: 14 g/dL
- Ht [1]: 39.7%
- Lym [1]: 84%
- MCH [1]: 21.6 pg
- MCHC [1]: 35.2%
- MCV [1]: 61.2 fL
- Mono [1]: 2%
- Neu [1]: 12.8%
- PT [1]: 16.5 s
- Plat [1]: 131.6 x10_4/uL
- RBC [1]: 648.8 x10_4/ul
- Ret [1]: 5.4%
- WBC [1]: 83.8 x10_2/uL
- A/G [1]: 1.2
- ALP [1]: 1643.6 IU/L
- ALT [1]: 41.2 IU/L
- AST [1]: 61 IU/L
- BUN [1]: 14.6 mg/dL
- CRE [1]: 0.1 mg/dL
- Ca [1]: 11 mg/dL
- Cl [1]: 107 meq/L
- DBIL [1]: 0.002 mg/dL
- GLC [1]: 178.4 mg/dL
- IP [1]: 6.6 mg/dL
- K [1]: 4.4 meq/L
- LDH [1]: 260.2 IU/L
- Na [1]: 142.4 meq/L
- PL [1]: 173 mg/dL
- RALB [1]: 3.3 g/dL
- TBIL [1]: 0.012 mg/dL
- TC [1]: 94 mg/dL
- TG [1]: 132.8 mg/dL
- TP [1]: 5.9 g/dL
- gamma-GTP [1]: 1.2 IU/L
- TERMINAL_BW [2]: 231.6 g
- TERMINAL_BW [3]: 256 g
- TERMINAL_BW [4]: 282.7 g
- APTT [2]: 20.9 s
- Bas [2]: 0%
- Eos [2]: 1%
- Fbg [2]: 335.6 mg/dL
- Hb [2]: 15.1 g/dL
- Ht [2]: 41.3%
- Lym [2]: 83.6%
- MCH [2]: 22.3 pg
- MCHC [2]: 36.7%
- MCV [2]: 60.7 fL
- Mono [2]: 2%
- Neu [2]: 12.8%
- PT [2]: 16.9 s
- Plat [2]: 122.3 x10_4/uL
- RBC [2]: 680 x10_4/ul
- Ret [2]: 3.7%
- WBC [2]: 90.9 x10_2/uL
- APTT [3]: 21.6 s
- Bas [3]: 0%
- Eos [3]: 0.2%
- Fbg [3]: 295 mg/dL
- Hb [3]: 14.6 g/dL
- Ht [3]: 41.6%
- Lym [3]: 89%
- MCH [3]: 20.2 pg
- MCHC [3]: 35%
- MCV [3]: 57.6 fL
- Mono [3]: 1%
- Neu [3]: 8.4%
- PT [3]: 17.5 s
- Plat [3]: 109.2 x10_4/uL
- RBC [3]: 721.2 x10_4/ul
- Ret [3]: 1.6%
- WBC [3]: 89.2 x10_2/uL
- APTT [4]: 21.4 s
- Bas [4]: 0%
- Eos [4]: 0.8%
- Fbg [4]: 290.6 mg/dL
- Hb [4]: 15.4 g/dL
- Ht [4]: 42.4%
- Lym [4]: 84.4%
- MCH [4]: 19.3 pg
- MCHC [4]: 36.2%
- MCV [4]: 53.3 fL
- Mono [4]: 2%
- Neu [4]: 12.2%
- PT [4]: 17.4 s
- Plat [4]: 90.1 x10_4/uL
- RBC [4]: 796 x10_4/ul
- Ret [4]: 1%
- WBC [4]: 91.7 x10_2/uL
- A/G [2]: 1.1
- ALP [2]: 1563.2 IU/L
- ALT [2]: 34.4 IU/L
- AST [2]: 57 IU/L
- BUN [2]: 17.2 mg/dL
- CRE [2]: 0.2 mg/dL
- Ca [2]: 10.7 mg/dL
- Cl [2]: 108 meq/L
- DBIL [2]: 0.002 mg/dL
- GLC [2]: 166.8 mg/dL
- IP [2]: 6.7 mg/dL
- K [2]: 4.2 meq/L
- LDH [2]: 248.8 IU/L
- Na [2]: 141.8 meq/L
- PL [2]: 169.4 mg/dL
- RALB [2]: 3.2 g/dL
- TBIL [2]: 0.002 mg/dL
- TC [2]: 97 mg/dL
- TG [2]: 105 mg/dL
- TP [2]: 6.3 g/dL
- gamma-GTP [2]: 1 IU/L
- A/G [3]: 1.1
- ALP [3]: 1519.4 IU/L
- ALT [3]: 31.2 IU/L
- AST [3]: 48 IU/L
- BUN [3]: 22.2 mg/dL
- CRE [3]: 0.2 mg/dL
- Ca [3]: 10.8 mg/dL
- Cl [3]: 106.4 meq/L
- DBIL [3]: 0.002 mg/dL
- GLC [3]: 175.6 mg/dL
- IP [3]: 6.2 mg/dL
- K [3]: 3.8 meq/L
- LDH [3]: 190.4 IU/L
- Na [3]: 142.6 meq/L
- PL [3]: 169 mg/dL
- RALB [3]: 3.4 g/dL
- TBIL [3]: 0.018 mg/dL
- TC [3]: 105 mg/dL
- TG [3]: 79.6 mg/dL
- TP [3]: 6.7 g/dL
- gamma-GTP [3]: 1 IU/L
- A/G [4]: 1
- ALP [4]: 839.6 IU/L
- ALT [4]: 34 IU/L
- AST [4]: 44 IU/L
- BUN [4]: 21.2 mg/dL
- CRE [4]: 0.3 mg/dL
- Ca [4]: 10.4 mg/dL
- Cl [4]: 106.2 meq/L
- DBIL [4]: 0.006 mg/dL
- GLC [4]: 169.8 mg/dL
- IP [4]: 5.3 mg/dL
- K [4]: 3.9 meq/L
- LDH [4]: 154.8 IU/L
- Na [4]: 142.2 meq/L
- PL [4]: 159.6 mg/dL
- RALB [4]: 3.5 g/dL
- TBIL [4]: 0.014 mg/dL
- TC [4]: 103.2 mg/dL
- TG [4]: 53.8 mg/dL
- TP [4]: 6.9 g/dL
- gamma-GTP [4]: 2 IU/L
- TERMINAL_BW [5]: 196.1 g
- APTT [5]: 20.2 s
- Bas [5]: 0%
- Eos [5]: 1%
- Fbg [5]: 316.5 mg/dL
- Hb [5]: 14.8 g/dL
- Ht [5]: 41.3%
- Lym [5]: 81.4%
- MCH [5]: 21.8 pg
- MCHC [5]: 35.9%
- MCV [5]: 60.6 fL
- Mono [5]: 2.2%
- Neu [5]: 14.6%
- PT [5]: 15.9 s
- Plat [5]: 118.8 x10_4/uL
- RBC [5]: 682.8 x10_4/ul
- Ret [5]: 3.7%
- WBC [5]: 59.4 x10_2/uL
- A/G [5]: 1.2
- ALP [5]: 1390.6 IU/L
- ALT [5]: 34.8 IU/L
- AST [5]: 42.2 IU/L
- BUN [5]: 16.6 mg/dL
- CRE [5]: 0.1 mg/dL
- Ca [5]: 10.8 mg/dL
- Cl [5]: 108.2 meq/L
- DBIL [5]: 0.004 mg/dL
- GLC [5]: 162 mg/dL
- IP [5]: 7.1 mg/dL
- K [5]: 3.9 meq/L
- LDH [5]: 258.6 IU/L
- Na [5]: 141.8 meq/L
- PL [5]: 180.8 mg/dL
- RALB [5]: 3.2 g/dL
- TBIL [5]: 0.028 mg/dL
- TC [5]: 103 mg/dL
- TG [5]: 62.2 mg/dL
- TP [5]: 5.9 g/dL
- gamma-GTP [5]: 1 IU/L
- TERMINAL_BW [6]: 231.6 g
- TERMINAL_BW [7]: 234.9 g
- TERMINAL_BW [8]: 244.7 g
- APTT [6]: 20.6 s
- Bas [6]: 0%
- Eos [6]: 1%
- Fbg [6]: 347.6 mg/dL
- Hb [6]: 14.7 g/dL
- Ht [6]: 40.3%
- Lym [6]: 86.8%
- MCH [6]: 21.7 pg
- MCHC [6]: 36.4%
- MCV [6]: 59.6 fL
- Mono [6]: 2.2%
- Neu [6]: 8.4%
- PT [6]: 17.9 s
- Plat [6]: 132.4 x10_4/uL
- RBC [6]: 677 x10_4/ul
- Ret [6]: 2.3%
- WBC [6]: 73.6 x10_2/uL
- APTT [7]: 20.8 s
- Bas [7]: 0%
- Eos [7]: 0.4%
- Fbg [7]: 430.8 mg/dL
- Hb [7]: 14.5 g/dL
- Ht [7]: 40.9%
- Lym [7]: 80.4%
- MCH [7]: 20.4 pg
- MCHC [7]: 35.4%
- MCV [7]: 57.7 fL
- Mono [7]: 2.6%
- Neu [7]: 15%
- PT [7]: 18.1 s
- Plat [7]: 100.4 x10_4/uL
- RBC [7]: 708.8 x10_4/ul
- Ret [7]: 1.4%
- WBC [7]: 65 x10_2/uL
- APTT [8]: 19.9 s
- Bas [8]: 0%
- Eos [8]: 0.2%
- Fbg [8]: 298.4 mg/dL
- Hb [8]: 14.9 g/dL
- Ht [8]: 40.7%
- Lym [8]: 87.4%
- MCH [8]: 19.6 pg
- MCHC [8]: 36.7%
- MCV [8]: 53.4 fL
- Mono [8]: 1.8%
- Neu [8]: 9.4%
- PT [8]: 18.1 s
- Plat [8]: 77.6 x10_4/uL
- RBC [8]: 761.4 x10_4/ul
- Ret [8]: 0.7%
- WBC [8]: 79.7 x10_2/uL
- A/G [6]: 1.1
- ALP [6]: 1556.6 IU/L
- ALT [6]: 30.2 IU/L
- AST [6]: 32.4 IU/L
- BUN [6]: 18 mg/dL
- CRE [6]: 0.2 mg/dL
- Ca [6]: 11.1 mg/dL
- Cl [6]: 107.2 meq/L
- DBIL [6]: 0.004 mg/dL
- GLC [6]: 161.4 mg/dL
- IP [6]: 7 mg/dL
- K [6]: 4.1 meq/L
- LDH [6]: 221.8 IU/L
- Na [6]: 141.4 meq/L
- PL [6]: 203.2 mg/dL
- RALB [6]: 3.5 g/dL
- TBIL [6]: 0.01 mg/dL
- TC [6]: 120 mg/dL
- TG [6]: 89.4 mg/dL
- TP [6]: 6.7 g/dL
- gamma-GTP [6]: 1.8 IU/L
- A/G [7]: 1
- ALP [7]: 984.4 IU/L
- ALT [7]: 30.8 IU/L
- AST [7]: 26.6 IU/L
- BUN [7]: 21.6 mg/dL
- CRE [7]: 0.3 mg/dL
- Ca [7]: 11.1 mg/dL
- Cl [7]: 106.4 meq/L
- DBIL [7]: 0.006 mg/dL
- GLC [7]: 164.8 mg/dL
- IP [7]: 6.3 mg/dL
- K [7]: 4 meq/L
- LDH [7]: 182.6 IU/L
- Na [7]: 142.6 meq/L
- PL [7]: 201.4 mg/dL
- RALB [7]: 3.6 g/dL
- TBIL [7]: 0.034 mg/dL
- TC [7]: 140.2 mg/dL
- TG [7]: 44.4 mg/dL
- TP [7]: 7.2 g/dL
- gamma-GTP [7]: 2 IU/L
- A/G [8]: 1.1
- ALP [8]: 910 IU/L
- ALT [8]: 33.4 IU/L
- AST [8]: 25.8 IU/L
- BUN [8]: 24.8 mg/dL
- CRE [8]: 0.3 mg/dL
- Ca [8]: 10.8 mg/dL
- Cl [8]: 105.6 meq/L
- DBIL [8]: 0.028 mg/dL
- GLC [8]: 166.6 mg/dL
- IP [8]: 5.6 mg/dL
- K [8]: 3.5 meq/L
- LDH [8]: 151.2 IU/L
- Na [8]: 143.8 meq/L
- PL [8]: 167.6 mg/dL
- RALB [8]: 3.7 g/dL
- TBIL [8]: 0.048 mg/dL
- TC [8]: 110 mg/dL
- TG [8]: 42 mg/dL
- TP [8]: 7.2 g/dL
- gamma-GTP [8]: 2.6 IU/L
